According to patent US9456589B2, “Elasmobranch-repelling compounds and methods of use” (priority 2005, dated 2016):
Several values for one entry are separate records, joined by “and”; a condition that tells them apart may be missing. Equal entries are not always repeated.

What was measured:
[1] = system: juvenile lemon and nurse sharks; experiment: Tonic immobility, Micropipette Assay, summary over species; format: in vivo; details: juvenile lemon and nurse sharks
Description: (§1) One bioassay used to observe and measure flight response is the tonic immobility test. Tonic immobility is a state of paralysis that typically occurs when a shark is subject to inversion of its body along the longitudinal axis. This state is called “tonic,” and the shark can remain in this state for up to 15 minutes thereby allowing researchers to observe effects of chemical repellents. The “tonic” state of the shark is first established by releasing seawater in proximity to the “tonic” shark with the same delivery instrument and at the same distance as a “test” repellent compound will be released. Some controls are released with a high flow rate (30 mL/sec) in order to establish that sharks are not awakened by a jet of fluid over their noses. Once behavioral controls are established, a compound or composition that may have a repelling effect is delivered to the shark. If the compound or composition engenders a flight response, the shark will awaken from the tonic state and rapidly attempt to flee the delivered repellent. Using this tonic immobility bioassay researches can quantify the strength of a repellent effect.
A fourth method of delivery was called the “Micropipette Assay” method of delivery. In this method, a very small dose (fraction of a mL) of a test substance was delivered directly into a shark's mouth. […] A response, such as a cough or other notable action of the shark, was usually noted when effective gustatory repellents were delivered directly into a shark's mouth while in tonic immobility.
The Micropipette Assay method has not proven to be a particularly effective method of assaying for a flight response in elasmobranchs. The Micropipette Assay method is, nevertheless, an excellent method for specifying that a gustatory response has occurred. It is effective for specifying a gustatory response because the micropipette delivery method allows direct delivery of an entire bolus of test substance into the mouth of the shark being tested.
An oral dose of no more than 400 microliters was then delivered by micropipette into the mouth of a juvenile nurse shark. Tonic immobility was terminated. For each derivative of butyric acid and each naturally occurring acid listed in Table 9, a first micropipette assay was performed on a juvenile lemon shark with no more than 100 microliters of test acid in an oral dose. A second micropipette assay was then performed on a juvenile nurse shark with no more than 400 microliters of test acid in an oral dose. In each test, tonic immobility was terminated.
In a first set of studies on the effectiveness of carboxylic acids as elasmobranch repellents, each tested substance was subjected to the following protocol. […] An oral dose of no more than 400 microliters was then delivered by micropipette into the mouth of a juvenile nurse shark. Tonic immobility was terminated. […] The data evidences the gustatory repelling activity of carboxylic acids.

sharks (species pooled) = experiment: Tonic immobility, total of delivery methods not including Micropipette assays; format: in vivo
Description: as §1
Table 1, which summarizes the data in Tables 14 and 15, evidences the gustatory repellent characteristics of methylbutanals. In 35 of 36 assays (combining columns “Y” and “R” under the column labeled “Total (Not including Micropipette Assays)” to arrive at a 97% effectiveness rate), including assays on lemon, nurse, tiger and blacktip sharks, the gustatory repellent activity of 3-methylbutanal was established. In 81% of assays, tonic immobility was fully terminated. […] In only a single assay did a shark not respond to treatment with 3-methylbutanal.

[2] = species and delivery methods pooled

## CC(C)CC=O [3-methylbutanal]
[1]
  Micropipette assays with a behavioral response within tonic immobility: ten
  Micropipette assays with a gustatory response (termination or behavior change): 16 of 20 and fifteen
  Micropipette assays with no response: five
[1]; oral dose
  Micropipette Y (termination of tonic immobility), trials of trials: five
Sharks (species pooled); Hd Syringe, Syringe 3/5/10 and Bite, lemon, nurse, tiger, blacktip
  assays with termination of tonic immobility or behavior change (Y and R combined), not including Micropipette assays: 40 of 41 and 35 of 36
Sharks (species pooled); lemon, nurse, tiger, blacktip
  effectiveness rate (Y and R combined), not including Micropipette assays: 97%
Sharks (species pooled); [2]
  Total (Not including Micropipette assays / Effective Delivery Methods) N, trials of trials: single and 1/36
  Total (Not including Micropipette assays / Effective Delivery Methods) R, trials of trials: 6/36
  Total (Not including Micropipette assays / Effective Delivery Methods) Y, trials of trials: 29/36
  Total N, percent of trials: (3%)
